Data reported in US5071988A, “Substituted benzoylbenzene-, biphenyl- and 2-oxazole-alkanoic acid derivatives” (American Home Products Corporation, priority 1991, dated 1991).
Like-named read-outs stand apart in the source and are kept apart here.

Experiments:
[1] = system: TxB2; experiment: reverse passive Arthus pleurisy assay, TxB2; type: in vivo, rat (male Lewis); details: for ED50 TxB2 / ED50: 5 min; for ED50: Rattus norvegicus, po, read-out: ED50 TxB2
Description: (§1) The compounds of the invention are further tested in the reverse passive Arthus pleurisy assay to evaluate their effectiveness in inflammatory mediator release and/or the fluid and cellular phases of an inflammatory response.
(§2) A reverse passive Arthus reaction is induced in the pleural cavity of male Lewis rats (150-200 g; fasted overnight prior to use) by the intravenous administration of bovine serum albumin (BSA; 4 mg/0.2 ml) followed by 30 minutes later by the injection of rabbit anti-BSA (1 mg/0.2 ml; lyophilized IgG fraction; Organon Teknika, West Chester, Pa.) into the right pleural space under halothane anesthesia. Drugs or vehicle (0.5% Tween-80) control are administered orally in a volume of 1 ml/100 g body weight at 1 hour prior to the anti-BSA. Animals are sacrificed at either the time of peak eicosanoid production (i.e. 5 minutes after anti-BSA for immunoreactive TxB2 10 minutes for immunoreactive LTB4, 20 minutes for immunoreactive LTC4) or at the time of peak neutrophil infiltration (4 hours after anti-BSA) by CO2 inhalation. The pleural cavity is then exposed, the fluid exudate removed by gentle vacuum aspiration and the volume of exudate is recorded. For the determination of cellular infiltration, the pleural cavity is rinsed with 3 ml of 0.1% EDTA in sterile saline, and the recovered wash is pooled with the exudate. Cell number is determined on a model ZBI Coulter counter. For determination of eicosanoid production, undiluted pleural exudate is microfuged and the supernatant is extracted with ethanol (8-10 times volume). Extracts are either stored at -20° C., or are evaporated to dryness under a stream of N2 and reconstituted in radioimmunoassay (RIA) buffer.
(§3) Eicosanoids are quantitated by RIA according to the procedure specified by the RIA kit manufacturer (Advanced Magnetics, Cambridge, Mass.). Briefly, 100 μl of ^3 H-labeled eicosanoid and 100 μl of specific antibody are sequentially added to 100 μl of extracted pleural exudate in BGG -phosphate buffer which contains 0.01M phosphate, 0.1% bovine gamma globulin and 0.1% sodium azide at pH 7.0. Antibody-bound eicosanoid is separated from unbound eicosanoid by the addition of 750 μl of dextran (0.4%)-coated charcoal (0.4% Norit A) containing 0.1% sodium azide. The mixture is centrifuged at 2000 RPM at 5° C. for 15 minutes to pellet the charcoal and adsorbed unbound eicosanoid. Antibody-bound labeled eicosanoid is quantitated by counting in a liquid scintillation counter, and is correlated to concentration by a standard curve.
(§4) Inflammatory cells are expressed as 10^6 cells/ml, pleural exudate is expressed as ml of fluid, and the amount of eicosanoids in the pleural cavity is expressed as ng/ml of exudate. Mean±S.E.M. is determined for each group. Percent inhibition (% I) of cell number, exudate volume and eicosanoid production is calculated for vehicle-treated control groups, and the responses in drug-treated rats are then expressed as the mean % I of the control. […] Exp. Ther., 96, 99-113 (1949).

[2] = system: Fluid Exudation; experiment: reverse passive Arthus pleurisy assay, fluid exudation; type: in vivo, rat (male Lewis); details: 1 hour prior to anti-BSA, standard drugs; for ED30 Fluid Exudation: p.o.; for ED30: Rattus norvegicus, po
Description: as §1, §2, §4

[3] = system: LTB4; experiment: reverse passive Arthus pleurisy assay, LTB4; type: in vivo, rat (male Lewis); details: for ED50: Rattus norvegicus
Description: as §1, §2, §3, §4

[4] = system: Cellular Influx; experiment: reverse passive Arthus pleurisy assay, cellular influx; type: in vivo, rat (male Lewis); details: Rattus norvegicus, po, 4 h, 1 hour prior to anti-BSA; standard drugs
Description: as §1, §2, §4

[5] = system: PGE2 synthesis by rat glycogen-elicited polymorphonuclear leukocytes (cyclooxygenase); experiment: inhibition of PGE2 (cyclooxygenase product) synthesis by rat glycogen-elicited polymorphonuclear leukocytes; type: cell-based, rat (female Wistar); details: Leukocyte; for inhibition at 0.5 µM: read-out: % Inhibition (PGE2 synthesis)
Description: (§5) Rat polymorphonuclear leukocytes (PMNs) are obtained from female Wistar rats (150-200 g) which receive an injection of 6% glycogen (10 ml i.p.). Rats are sacrificed 18-24 hours post injection by CO2 asphyxiation and the elicited cells are harvested by peritoneal lavage using physiological saline (0.9% NaCl). The exudate is centrifuged at 400 xg for 10 minutes. The supernatant fluid is discarded and the cell pellet is resuspended to a concentration of 2.0×10^7 cells/mL in HBSS containing Ca^++ and Mg^++ and 10 μM L-cysteine.
(§6) To 1 mL aliquots of cell suspension, test drugs or vehicle are added, then preincubated at 37° C. for 10 minutes. A23187 (1 μM), [^3 H]-AA (3.0 μCi/mL) and unlabeled AA (1 μM) are then added and the samples are further incubated for 10 minutes. The reaction is terminated by centrifugation and pelleting cells. Supernatants are then analyzed by HPLC analysis on a 15 cm×4.6 mm ID supelcosil LC-18 (Supelco)(3M) column, using a two solvent system at a flow rate of 1.4 mL total flow as follows:
In this assay, the procedure of Example 14 is carried out as described. However, in order to determine cyclooxygenase activity, the samples are cochromatographed with authentic reference [^3 H]-PGE2.

[6] = system: LTB4 synthesis by rat glycogen-elicited polymorphonuclear leukocytes (PMN); experiment: inhibition of LTB4 synthesis by rat glycogen-elicited polymorphonuclear leukocytes (PMN); type: cell-based, rat (female Wistar); details: Leukocyte
Description: This is especially true with respect to 5,12-diHETE, which is also denoted as LTB4 [see Ford-Hitchinson, J. Roy. […] Med., 74, 831 (1981)]. Compounds which inhibit the PLA2 -mediated release of arachidonic acid thereby effectively prevent the oxidation of arachidonic acid to the various leukotriene products via the lipoxygenase cascade. Accordingly, the specificity of action of PLA2 inhibitors can be determined by the activity of test compounds in this assay, which measures the ability of compounds to inhibit the synthesis of LTB4 by rat glycogen-elicited polymorphonuclear leukocytes (PMN) in the presence of exogenous substrate.
The assay is carried out as follows:
as §5, §6
Gradient: (system is equilibrated with Solvent A)
Percent solvent changes are accomplished in a linear fashion.
Injections: 140 μL of each supernatant is injected directly onto column and ^3 H arachidonic acid metabolites are monitored using an on-line radioactivity detector (Ramona, IN/US, Fairfield, N.J.).
Standards: 10^4 -2.0×10^4 dpm of eicosanoids of interest are injected in 90 μL EtOH cocktail.
Results are expressed as percent inhibition at a given compound dose or as an IC50 value.

[7] = target: T1, Human Synovial PLA2 (Homo sapiens, UniProt P14555); experiment: in vitro isolated phospholipase A2 assay, human synovial fluid PLA2; type: biochemical; details: read-out: % Inhibition at 10 μM HSF
T1 construct: Purified human synovial fluid; from tissue; host or cells: human synovial fluid (purified)
T1 sequence (P14555 21-144): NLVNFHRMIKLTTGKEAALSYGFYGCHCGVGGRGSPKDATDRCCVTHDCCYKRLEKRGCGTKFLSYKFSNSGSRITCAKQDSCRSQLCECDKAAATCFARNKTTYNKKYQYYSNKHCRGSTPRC
Description: The compounds of the invention are tested in an in vitro isolated phospholipase A2 assay to determine the ability of the test compounds to inhibit the release of arachidonic acid from an arachidonic acid-containing substrate by the action of phospholipase A2 enzyme from human and non-human sources.
Into a 15 mL polypropylene tube are added the following:
^ 6 Two human PLA2 enzymes are used:
b) Purified human synovial fluid.
Incubate the 100 μL reaction mixture for 10 minutes at 37° C. in a shaking water bath. The reaction is terminated by the addition of 2 mL tetrahydrofuran, followed by vortexing. NH2 columns (100 μg/mL--Analytichem International) are conditioned with 0.5 mL tetrahydrofuran followed by 0.5 mL tetrahydrofuran/water (2 mL:0.1 mL, v/v).
The sample is loaded onto the columns and slowly drawn through them. The hydrolyzed arachidonic acid retained in the columns is eluted therefrom with 1 mL tetrahydrofuran/glacial acetic acid (2%). The arachidonic acid is transferred to scintillation vials and quantitated by β-counting analysis. A "total counts" sample is prepared by pipetting 25 μL ^3 H-arachidonate E. coli directly into a scintillation vial to which is added 1 mL tetrahydrofuran. 10 mL aquasol (scintillation cocktail) is added to all samples.

[8] = p.o., 1 hour prior to anti-BSA, standard drugs
[9] = at 0.5 μM, negative values denote potentiation of cyclooxygenase
[10] = negative values denote potentiation of cyclooxygenase
[11] = at 10 μM, human synovial fluid, negative values denote potentiation of HSF

For `COc1ccc2cc([C@H](C)C(=O)O)ccc2c1` [Naproxen], the “ED50 TxB2” value [1, 8] was 0.24 mg/kg p.o, the “ED30 Fluid Exudation” value [2] was 3.9 mg/kg p.o and the “% Inh LTB4” value ([3]; 4 mg/kg p.o.) was 0%.
Compound `O=C1CCN(c2ccccc2)N1` [Phenidone] has an ED30 [4] of 23 mg/kg, an ED50 [1, 8] of 69 mg/kg and an ED30 [2] of 21 mg/kg. For the same compound, the ED50 ([3]; po, 1 hour prior to anti-BSA, standard drugs, read-out: ED50 LTB4) was 10 mg/kg.
`O=C(O)Cc1cccc(C(=O)c2ccc(OCc3ccc4ccccc4n3)cc2)c1` [Example 3, 3-[4-(2-Quinolinylmethoxy)benzoyl]benzene acetic acid] gave an inhibition at 0.5 µM [5, 9] of -8%, an inhibition at 10 µM [5, 10] of 8% and an inhibition at 0.5 µM [6] of 38%. For the same compound, the inhibition at 10 µM [6] was 87% and the inhibition at 10 µM [7, 11] was 25.5%.
Work on `CC(=O)c1ccc(-c2ccc(OCc3ccc4ccccc4n3)cc2)c([N+](=O)[O-])c1` [Example 1, 1-[2-Nitro-4'-(2-quinolinylmethoxy)-[1,1'-biphenyl]4-yl]ethanone] yielded an inhibition at 0.5 µM [5, 9] of -13% and an inhibition at 0.5 µM [6] of 95%.
With `C[C@H](C(=O)O)c1ccc2cc(OCc3ccc4ccccc4n3)ccc2c1.NC(CO)(CO)CO` [Wy-50,295-A] the “% Inh TxB2” value ([1]; 75 mg/kg p.o.) was 0%.
With `CC(C(=O)O)c1cccc(C(=O)c2ccccc2)c1` (stereo not drawn) [ketoprofen] the ED50 [1] was 0.18 mg/kg and the inhibition at 10 µM [7] was -16.9%.
Work on `COC(=O)CCc1nc(-c2ccc(OCc3ccc4ccccc4c3)cc2)c(-c2ccccc2)o1` [Example 6A, 4-[4-[2-Naphthalenylmethoxy]phenyl]-5-phenyl-2-oxazole propanoic acid methylester] yielded an inhibition at 0.5 µM [5, 9] of -29%, an inhibition at 10 µM [5, 10] of -79% and an inhibition at 0.5 µM [6] of 63%. The inhibition at 10 µM [6] was 94%.
For `O=C(O)Cc1cccc(C(=O)c2ccc(OCc3ccc4ccccc4c3)cc2)c1` [Example 4, 3-[4-(2-Naphthalenylmethoxy)benzoyl]benzene acetic acid], the inhibition at 10 µM [5, 10] was -31%, the inhibition at 10 µM [6] was 8% and the inhibition at 10 µM [7, 11] was 15.1%.
With `O=C(O)CCc1nc(-c2ccc(OCc3ccc4ccccc4c3)cc2)c(-c2ccccc2)o1` [Example 6, 4-[4-[2-Naphthalenylmethoxy]phenyl]-5-phenyl-2-oxazole propanoic acid] the inhibition at 10 µM [5, 10] was -191%, the inhibition at 0.5 µM [5] was -12% and the inhibition at 0.5 µM [6] was 81%. It also gave an inhibition at 10 µM [6] of 95%.
With `O=C(O)Cc1ccccc1Nc1c(Cl)cccc1Cl` [Diclofenac] the ED50 [1] was 6 mg/kg.
Compound `O=C(O)Cc1ccc(-c2ccc(OCc3ccc4ccccc4n3)cc2)c(F)c1` [Example 2, 2-Fluoro-4'-(2-quinolinylmethyoxy)-[1,1'-biphenyl]-4-acetic acid] has an inhibition at 0.5 µM [5] of -22% and an inhibition at 0.5 µM [6] of 91%.
`C[C@@H]1C[C@H]2[C@@H]3CCC4=CC(=O)C=C[C@]4(C)[C@@]3(F)[C@@H](O)C[C@]2(C)[C@@]1(O)C(=O)CO` [Dexamethasone] was tested, and the ED30 [4] was 0.13 mg/kg and the “ED30 Fluid Exudation” value [2] was 0.05 mg/kg p.o.
`CN1C(C(=O)Nc2ccccn2)=C(O)c2ccccc2S1(=O)=O` [Piroxicam] was tested, and the ED30 [4] was 3 mg/kg and the ED30 [2] was 1 mg/kg.
`CN=C1CCN(c2cccc(C(F)(F)F)c2)N1` [BW540C] was tested, and the “ED50 TxB2” value [1, 8] was 19 mg/kg p.o and the “ED50 LTB4” value [3, 8] was 30 mg/kg p.o.
In the case of `Cn1c(COc2ccc(-c3nc(CCC(=O)O)oc3-c3ccccc3)cc2)nc2ccccc21` [Example 7, 4-[4-[(1-Methyl-1H-benzimidazol-2-yl)methoxy]phenyl]-5-phenyl-2-oxazole propanoic acid], the inhibition at 10 µM [6] is reported as 85%.
Work on `O=C(O)Cc1ccc(-c2ccc(OCc3ccc4ccccc4n3)cc2)c(F)c1` [Example 9, 2-Fluoro-4'-(2-quinolinylmethoxy)[1,1'-biphenyl]-4-acetic acid, 2-amino-2-hydroxymethyl-1,3-propane diol] yielded an ED50 ([3]; reverse passive Arthus pleurisy, oral, read-out: ED50 (LTB4 Synthesis)) of 0.8 mg/kg.
